Several values for one entry are separate records, joined by “and”; a condition that tells them apart may be missing. Equal entries are not always repeated. Where two headings read alike, the source gives them in different places. No end group written: not given here.
Tests used:
NMUR-1 = biological target: T1, NMUR-1 (Caenorhabditis elegans, UniProt Q18701); assay: Luminescence-based (aequorin) calcium mobilization assay for GPCR activation, NMUR-1 expressed in CHO cells; type: cell-based; conditions: calcium response, aequorin luminescence 496 nm, 30 s, CHO K1 cells stably overexpressing apo-aequorin and human Gα16, transiently transfected nmur-1/pcDNA3.1, 0.1 nM to 100 µM, HPLC-purified peptides, read-out: EC50 (half maximal effective concentration) to activate NMUR-1
T1 sequence (Q18701 1-400): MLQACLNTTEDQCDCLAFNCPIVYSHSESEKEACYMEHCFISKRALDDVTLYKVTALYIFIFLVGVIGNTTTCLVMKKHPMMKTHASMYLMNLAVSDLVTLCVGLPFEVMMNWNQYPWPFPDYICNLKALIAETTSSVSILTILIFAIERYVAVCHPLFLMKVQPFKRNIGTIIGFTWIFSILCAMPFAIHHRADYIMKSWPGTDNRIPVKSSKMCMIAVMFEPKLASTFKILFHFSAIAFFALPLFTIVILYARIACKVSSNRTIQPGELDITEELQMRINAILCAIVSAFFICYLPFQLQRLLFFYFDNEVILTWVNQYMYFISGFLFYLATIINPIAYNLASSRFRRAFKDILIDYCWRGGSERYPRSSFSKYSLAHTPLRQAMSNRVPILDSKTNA
From the text: Cells transfected with an empty pcDNA3.1 vector are used as a control. Error bars show S.E.M. CAPA-1-1 n = 6; CAPA-1-2 n = 6; CAPA-1-3 n = 5 experimental repeats. c The […] encodes a neuropeptide precursor that harbors three predicted peptide sequences (CAPA-1-1, -2, and -3), which are flanked by mono- and dibasic cleaving sites. Black bars indicate the positions of deletions in […]-44 mutant alleles used in this study. d Sequence comparison of C. elegans CAPA-1 neuropeptides and NmU neuropeptides from H. sapiens, D. rerio, and D. melanogaster. Conserved C-terminal features are highlighted in black. Residues with similar physicochemical properties are colored gray.

C. elegans = assay: Optogenetic silencing of ASG during conditioning or navigation of a 0-50 mM NaCl gradient; type: in vivo; conditions: ATR, single replicates
From the text: From left to right n = 51, 59, 43, 44 animals per condition. […] (bottom panel). Scale bar, 20 µm. f Optogenetic silencing of ASG. Individual worms are illuminated with yellow–green light for silencing CAPA-1 neurons during conditioning (acquisition phase) or during the NaCl chemotaxis assay when worms are navigating a linear NaCl gradient (retrieval phase) (see Methods for details). Arch requires supplementation of the cofactor all-trans retinal (ATR) to the worm culture. Transgenic C. elegans not fed ATR-supplemented food serve as a negative control. After conditioning, worms are put in the middle of a chemotaxis plate with a linear NaCl gradient (0–50 mM) and kept in the field-of-view using an automated xy-stage. […] Corresponding biased random walk and klinotaxis indices shown in Supplementary Fig. 10a, b. The time interval for statistical comparison was reduced to 5 min to accommodate the small plate format. g, h From left to right n = 10, 12, 14, 14, 12, 12, 14, 11 animals per condition. Shaded regions on a and g represent S.E.M. while black bars indicate the time interval for calculating the mean gradient position and behavioral indices. Significances determined by two-way ANOVA with Tukey’s HSD post hoc test. n.s. not significant; *p ≤ 0.05; **p ≤ 0.01; ***p ≤ 0.001. Boxplots show medians, 25th and 75th percentiles as box limits. The whiskers extend to the most extreme data points not considered as outlier.
Transgenic worms expressing the outward-directed proton pump Arch in ASG were cultured at 25 °C on culture plates seeded with sufficient OP50 E. coli. One day before the assay, transgenic worms were transferred to OP50 culture plates to which all-trans retinal (ATR, Sigma Aldrich) has been added (300 µM final concentration in fresh OP50 liquid culture). This cofactor is needed for Arch activity, and allows transgenic worms transferred to culture plates without ATR to serve as negative control. A 0 to 50 mM linear gradient was generated in a 55 mm Petri plate. First, 15 mL buffered CTX agar supplemented with 50 mM NaCl was poured in a 55 mm diameter Petri dish elevated to one side. An additional 15.5 mL buffered CTX agar without NaCl was poured on top of the first triangular wedge once it solidified. NaCl was allowed to diffuse at least 24 h prior the assay. Individual worms were washed for 15 min in a small volume of CTX buffer with or without 100 mM NaCl (NaCl-conditioning or mock-conditioning). After conditioning the worm was transferred to the center of the 0 to 50 mM NaCl gradient plate, mounted on a Zeiss AxioObserver Z1 microscope. The animal was then allowed to navigate the plate for 10 min while an automated xy-stage kept it in the field-of-view. […] Each animal’s path was reconstructed based on the recorded low-resolution video-stream and the logged stage positions. The behavior was then segmented and indices reflecting chemotaxis behavior were calculated as described above.
Supplementary Fig. 10. Behavioral effects of silencing CAPA-1 neurons (related to Fig. 7) The inhibitory opsin Arch is expressed in ASG under control of the capa-1 promoter. Individual transgenic worms are illuminated with yellow-green light for ASG silencing while being conditioned, or when they are navigating an agar plates with a 0 to 50 mM NaCl linear gradient (a-b) or no gradient (c-d). Arch requires the cofactor all-trans retinal (ATR) to be supplemented to the worm culture.
Transgenic C. elegans not fed ATR-supplemented food serve as a negative control. See Methods for details. (a) Biased random walk and (b) klinotaxis indices for mock- and NaCl-conditioned animals navigating a 0 to 50 mM NaCl gradient. (a-b) From left to right n = 10, 12, 14, 14, 12, 12, 14, 11 animals per condition. (c) Mean speed of individual worms and (d) the fraction of time in each behavioral state when worms are navigating a plate without NaCl. From left to right n = 7, 7, 7, 7, 7, 7, 5, 7 animals per

[1] = NaCl-conditioned, Time Window Silencing: Navi - Retrieval
[2] = NaCl-conditioned, Time Window Silencing: Wash - conditioning
[3] = mock-conditioned, Time Window Silencing: Navi - Retrieval
[4] = mock-conditioned, Time Window Silencing: Wash - conditioning
[5] = CAPA-1-1 n = 6, CAPA-1-3 n = 5 experimental repeats

LYMARV-NH2 [CAPA-1-2] was tested. Which EC50 (NMUR-1; CAPA-1-2 n = 6 experimental repeats) did it give?
The EC50 was 8000 nM.

Which “Fraction of time in Pause” value (C. elegans; [1]) does the source give for `CC1=C(/C=C/C(C)=C/C=C/C(C)=C/C=O)C(C)(C)CCC1` [ATR] here?
The value was 0.

What about the “Fraction of time in Run” value (C. elegans; [1]) of the same compound?
Its value is 0.741 and 0.8212 and 0.8921 and 0.8348 and 0.9414 and 0.927 and 0.8623.

And the “Fraction of time in Turn” value (C. elegans; [1])?
Its value is 0.1151 and 0.03803 and 0.0668 and 0.04464 and 0.02467 and 0.01439.

And the “Fraction of time in Pause” value (C. elegans; [2])?
The value was 0.

And the “Fraction of time in Pirouette” value (C. elegans; [2])?
The value was 0.1562 and 0.1901 and 0.02158 and 0.1641 and 0.1069 and 0 and 0.05344.

And the “Fraction of time in Run” value (C. elegans; [2])?
The value was 0.7451 and 0.7688 and 0.9609 and 0.8359 and 0.888 and 0.9702 and 0.8828.

And the “Fraction of time in Turn” value (C. elegans; [2])?
Its value is 0.09866 and 0.04111 and 0.01747 and 0 and 0.005139 and 0.0298 and 0.06372.

What about the “Fraction of time in Pirouette” value (C. elegans; NaCl, Time Window Silencing: Navi - Retrieval) of the same compound?
Its value is 0.1439 and 0.1408 and 0.04111 and 0.1205 and 0.03392 and 0.0483 and 0.1233.

What about the “Fraction of time in Pause” value (C. elegans; [3]) of the same compound?
Its value is 0.

What about the “Fraction of time in Pirouette” value (C. elegans; [3]) of the same compound?
The value was 0.1326 and 0.1912 and 0.112 and 0.1439 and 0.1819 and 0.2179 and 0.1771.

What about the “Fraction of time in Run” value (C. elegans; [3]) of the same compound?
The value was 0.7564 and 0.7081 and 0.7595 and 0.8171 and 0.6516 and 0.7513 and 0.7264.

And the “Fraction of time in Turn” value (C. elegans; [3])?
The value was 0.111 and 0.1007 and 0.1285 and 0.03905 and 0.1665 and 0.03083 and 0.0965.

And the “Fraction of time in Pause” value (C. elegans; [4])?
The value was 0.

What about the “Fraction of time in Pirouette” value (C. elegans; [4]) of the same compound?
Its value is 0.3217 and 0.03289 and 0 and 0.6616 and 0.1079 and 0.1788 and 0.04317.

And the “Fraction of time in Run” value (C. elegans; [4])?
Its value is 0.6208 and 0.8756 and 0.9106 and 0.3384 and 0.8016 and 0.8068 and 0.9085.

And the “Fraction of time in Turn” value (C. elegans; [4])?
Its value is 0.05755 and 0.09147 and 0.08941 and 0 and 0.09044 and 0.01439 and 0.0483.

How did the EC50 (NMUR-1; [5]) turn out when AFFYTPRI-NH2 [CAPA-1-3] was run?
The EC50 was 142 nM.

How did the EC50 (NMUR-1; [5]) turn out when APHPSSALLVPYPRV-NH2 [CAPA-1-1] was run?
The EC50 was 6 nM.
